Laboratory results published in patent US20090062302A1, “Jak2 Tyrosine Kinase Inhibition” (priority 2006, published 2009).

Tested on: patients with JAK2 positive refractory MPD
Test: Clinical trial in patients with JAK2 positive refractory MPD
Format: in vivo, human
Conditions: one trial, eight patients

Cc1cc(Nc2cc(N3CCN(C)CC3)nc(Sc3ccc(NC(=O)C4CC4)cc3)n2)n[nH]1 [Compound I, Cyclopropane carboxylic acid {4-[4-(4-methyl-piperazin-1-yl)-6-(5-methyl-2H-pyrazol-3-ylamino)-pyrimidin-2-ylsulphanyl]-phenyl}-amide]
patients who achieved an objective response: six out of eight
